IC50 data for 13 molecules are collected here from patent US12357603B2, “Acyl sulfonamides for treating cancer” (Bayer Aktiengesellschaft, priority 2019, dated 2025).

The target in experiment [1] is Recombinant human His-tagged Kat6a protein (amino acids 194-810) (Homo sapiens (Human), UniProt Q92794). The experiment is described as follows: Kat6a activity assay (TR-FRET, acetylation of biotinylated Histone-H4-derived peptide). Particulars: 60 mins at 22° C., read-out: KAT6A-DPF/HAT domain IC50 [mol/l] (arithmetic mean). Type of experiment: biochemical. The text has this: Kat6a inhibitory activities of the compounds described in the present invention were quantified using a Fluorescence Resonance Energy Transfer (TR-FRET) assay which measures acetylation of a synthetic, biotinylated Histone-H4-derived peptide by the enzyme.
Recombinant human His-tagged Kat6a protein (amino acids 194-810), was purified in-house from Baculovirus-infected insect cells (Sf9). Histone H4 peptide (amino acids 1-24, […]-VLRD-K(Btn)-amide), which was used as substrate, was synthesized by Biosyntan GmbH, Berlin, Germany. Acetyl Coenzyme A was purchased from Sigma-Aldrich (#A-2056).
Kat6a was incubated for 60 mins at 22° C. in the presence of different concentrations of test substances (0 μM, and within the range 0.01-20 μM) in assay buffer [25 mM Tris/HCl pH 8, 1 mM EGTA, 2.5 mM Glutathion, 0.02% Chicken Albumin, 0.05% Pluronic F127, 25 mM NaCl, 220 nM H4 peptide and 600 nM Acetyl Coenzym A].
The reaction was stopped by addition of Detection Solution (25 mM HEPES pH 7.5, 0.1% BSA, 22 nM SAXL665 (Cisbio #610SAXLE), 100 μM Anacardic Acid (Enzo #ALX-270-381), 1 nM Anti-Histone H4 (ACETYL K8) Antibody (ABCAM #AB15823) and 0.5 nM Anti-Rabbit IgG Eu (Perkin Elmer #AD0083).
The fluorescence emission at 620 nm and 665 nm after excitation at 330-350 nm was measured in a TR-FRET measuring instrument, for instance a Rubystar or a Pherastar (both from BMG Lab Technologies, Offenburg, Germany) or a Viewlux (Perkin-Elmer). The ratio of the emission at 665 nm and at […] was used as indicator of the amount of acetylated peptide.
The resulting data (ratio) were normalized, taking 0% inhibition as the mean value of control measurements where all reagents were included. In this case 50 nl DMSO were used instead of compounds. […] IC50 values were determined by regression analysis based on a 4 parameter equation (minimum, maximum, ICM, Hill; Y=Max+(Min−Max)/(1+(X/ICso) Hill) using the Screener Software (Genedata).
Table 5 depicts the IC50 values of selected examples in biochemical KAT6A and KAT6B3 assays.
(TR-FRET usually uses a lanthanide donor and a delayed reading to cut background.)

The test system of experiment [2] is ESR1 transcription (luciferase signal in MVLN cells). The experiment can be described thus: Repression of ESR1 transcription, luciferase reporter in MVLN cells. The note with it: Homo sapiens, MVLN, inhibition of luciferase signal in MVLN cells; arithmetic mean. Type of experiment: cell-based. The text has this: Repression of ESR1 Transcription Upon Treatment of Cells with Compounds
KAT6A controls transcription of the ESR1 gene in breast cancer cells. Compound treatment that interferes with this mechanism was quantified using MVLN cells. These cells constitutively express the ER and are stably transfected with the luciferase (LUC) reporter gene and the corresponding hormone responsive element derived from the 5′-flanking region of the Xenopus Vitellogenin A2 gene (Pons et al., 1990, Demirpense et al., 1993, Joyeux et al., 1993). The repressive effect on ERα transcription activity of a test chemical is directly related to the luciferase measured in the lysate of treated MVLN cells.
Each sample was prepared as duplicate and rim wells were excluded. For luciferase signal determination 100 μl of a 1:1 mixture of Steadylite plus (Perkin Elmer; 6016759) and assay medium was added after 24 h for 15 minutes and measured in Victor X3 (Perkin Elmer). To exclude any effects caused by cell loss during the treatment, cell density was determined using Alamar Blue (Invitrogen; DAL1100). Prior to the luciferase measurement 10 μl Alamar Blue were added to each well and the plates were incubated for 2 h in the incubator. Then fluorescence was measured with Victor X3 (Perkin Elmer) at 530 nm/590 nm.
(Reporter assays use an easily measured gene product as a stand-in for the process of interest.)

Chain of Recombinant human His-tagged Kat6a protein (amino acids 194-810) (Q92794 194-810): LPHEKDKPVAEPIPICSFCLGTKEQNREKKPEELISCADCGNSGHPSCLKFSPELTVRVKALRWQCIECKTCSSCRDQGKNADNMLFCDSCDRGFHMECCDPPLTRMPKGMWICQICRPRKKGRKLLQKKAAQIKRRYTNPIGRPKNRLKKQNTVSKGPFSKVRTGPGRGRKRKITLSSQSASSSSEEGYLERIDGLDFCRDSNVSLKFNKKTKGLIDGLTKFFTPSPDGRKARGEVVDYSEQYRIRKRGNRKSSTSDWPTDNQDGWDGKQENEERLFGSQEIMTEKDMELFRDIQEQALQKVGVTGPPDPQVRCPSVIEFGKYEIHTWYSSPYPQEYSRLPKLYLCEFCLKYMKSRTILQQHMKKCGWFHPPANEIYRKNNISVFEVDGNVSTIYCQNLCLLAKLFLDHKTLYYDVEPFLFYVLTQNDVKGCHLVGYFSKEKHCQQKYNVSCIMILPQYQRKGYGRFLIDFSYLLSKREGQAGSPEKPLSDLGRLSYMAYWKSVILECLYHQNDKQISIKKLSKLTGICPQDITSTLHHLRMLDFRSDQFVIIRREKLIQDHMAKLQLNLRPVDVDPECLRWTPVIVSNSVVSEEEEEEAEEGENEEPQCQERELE

Take `CC(c1ccc(Cl)cc1Cl)S(=O)(=O)NC(=O)c1cc2ccc(N(C)C)cc2o1` (racemic) [Example 55, N-[1-(2,4-Dichlorophenyl)ethanesulfonyl]-6-(dimethylamino)-1-benzofuran-2-carboxamide (rac)]: the IC50 in experiment [1] came out at 86.4 nM.
Consider `CC(c1c(Cl)cccc1Cl)S(=O)(=O)NC(=O)c1cc2ccc(N(C)C)cc2o1` (racemic) [Example 56, N-[1-(2,6-Dichlorophenyl)ethanesulfonyl]-6-(dimethylamino)-1-benzofuran-2-carboxamide (rac)], for which the IC50 in experiment [1] worked out at 67.6 nM.
As to `CC(Oc1cccc(OC2CCC2)c1S(=O)(=O)NC(=O)c1cc2ccc(N(C)C)cc2o1)C(F)(F)F` (racemic) [Example 84, N-[2-(Cyclobutyloxy)-6-{[(2S)-1,1,1-trifluoropropan-2-yl]oxy}benzene-1-sulfonyl]-6-(dimethylamino)-1-benzofuran-2-carboxamide (rac)], the IC50 in experiment [1] turned out to be 40.6 nM; in experiment [2] it was 226 nM.
Take `CN(C)c1ccc2cc(C(=O)NS(=O)(=O)c3ccccc3Br)oc2c1` [Example 18, N-(2-Bromobenzene-1-sulfonyl)-6-(dimethylamino)-1-benzofuran-2-carboxamide]: the IC50 in experiment [1] stood at 129 nM.
Take `CN(C)c1ccc2cc(C(=O)NS(=O)(=O)c3ccccc3-c3ccccc3)oc2c1Br` [Example 50, N-([Biphenyl]-2-ylsulfonyl)-7-bromo-6-(dimethylamino)-1-benzofuran-2-carboxamide]: the IC50 in experiment [1] stood at 4230 nM.
As for `CN(C)c1ccc2cc(C(=O)NS(=O)(=O)c3ccccc3C(F)(F)F)oc2c1` [Example 54, 6-(Dimethylamino)-N-[2-(trifluoromethyl)benzene-1-sulfonyl]-1-benzofuran-2-carboxamide], the IC50 in experiment [1] worked out at 430 nM.
Turning to `CCOc1ccc(Br)cc1S(=O)(=O)NC(=O)c1cc2ccc(N(C)C)cc2o1` [Example 57, N-(5-Bromo-2-ethoxybenzene-1-sulfonyl)-6-(dimethylamino)-1-benzofuran-2-carboxamide], the IC50 in experiment [1] came to 38.2 nM.
As for `CCOc1ccncc1S(=O)(=O)NC(=O)c1cc2ccc(N(C)C)cc2o1` [Example 58, 6-(Dimethylamino)-N-(4-ethoxypyridine-3-sulfonyl)-1-benzofuran-2-carboxamide], in experiment [1], the IC50 came to 534 nM.
Consider `CN(C)c1ccc2cc(C(=O)NS(=O)(=O)c3ccccc3O)oc2c1` [Example 59, 6-(Dimethylamino)-N-(2-hydroxybenzene-1-sulfonyl)-1-benzofuran-2-carboxamide], for which the IC50 in experiment [1] was 86.1 nM.
`CCOC(=O)N1CCC(S(=O)(=O)NC(=O)c2cc3ccc(N(C)C)cc3o2)CC1` [Example 60, Ethyl-4-{[6-(dimethylamino)-1-benzofuran-2-carbonyl]sulfamoyl}piperidine-1-carboxylate]: the IC50 in experiment [1] was found to be 3200 nM.
As to `CCOc1c(F)cccc1S(=O)(=O)NC(=O)c1cc2ccc(N(C)C)cc2o1` [Example 169, 6-(Dimethylamino)-N-(2-ethoxy-3-fluoro-phenyl)sulfonyl-benzofuran-2-carboxamide], the IC50 in experiment [1] is 335 nM; in experiment [2] it was 340 nM.
As to `CCOc1cc(F)ccc1S(=O)(=O)NC(=O)c1cc2ccc(N(C)C)cc2o1` [Example 171, 6-(Dimethylamino)-N-(2-ethoxy-4-fluoro-phenyl)sulfonyl-benzofuran-2-carboxamide], the values for the IC50 in experiment [1] and in experiment [2] were 94.9 nM and 102 nM, respectively.
Regarding `CCOc1ccc(Oc2ccccc2)cc1S(=O)(=O)NC(=O)c1cc2ccc(N(C)C)cc2o1` [Example 174, 6-(Dimethylamino)-N-(2-ethoxy-5-phenoxy-phenyl)sulfonyl-benzofuran-2-carboxamide], the IC50 came out at 11.8 nM in experiment [1] and 123 nM in experiment [2].
